Tests used:
crabgrass = test: Test B preemergence/postemergence greenhouse plant response rating 0 to 10; format: in vivo, Digitaria spp.; conditions: for Plant response rating, Crabgrass: 0 to 10 scale
In short: (§1)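 Test chemicals were sprayed onto freshly planted seed and, concurrently, onto young plants between the one and four leaf stage. After a twelve- to sixteen-day greenhouse period, each species was visually compared with untreated controls.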

soybean = test: Test C preemergence/postemergence greenhouse plant response rating 0 to 100; format: in vivo, Glycine max; conditions: for Plant response rating, Soybean: 0 to 100 scale
In short: (§2)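 Compounds in non-phytotoxic solvent went onto sandy loam before emergence (seeded one day earlier) or onto plants at the one-to-four leaf stage. Duck salad was treated via flood water (~2.5 cm, maintained) over silt loam.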

velvetleaf = test: Test B preemergence/postemergence greenhouse plant response rating 0 to 10; format: in vivo, Abutilon theophrasti; conditions: 0 to 10 scale
In short: as §1

cheatgrass = test: as above; format: in vivo, Bromus secalinus; conditions: for Plant response rating, Cheatgrass: 0 to 10 scale
In short: as §1

corn = test: as above; format: in vivo, Zea mays; conditions: for Plant response rating, Corn: 0 to 10 scale
In short: as §1

barley = test: Test C preemergence/postemergence greenhouse plant response rating 0 to 100; format: in vivo, Hordeum vulgare; conditions: for Plant response rating Barley Igri: 0 to 100 scale
In short: as §2

morningglory [1] = test: as above; format: in vivo, Ipomoea hederacea; conditions: for Plant response rating, Morningglory: 0 to 100 scale
In short: as §2

lambsquarters = test: as above; format: in vivo, Chenopodium album; conditions: for Plant response rating Lambsquarters: 0 to 100 scale
In short: as §2

rape = test: Test B preemergence/postemergence greenhouse plant response rating 0 to 10; format: in vivo, Brassica napus; conditions: 0 to 10 scale
In short: as §1

barnyardgrass = test: as above; format: in vivo, Echinochloa crus-galli; conditions: for Plant response rating, Barnyardgrass: 0 to 10 scale
In short: as §1

broadleaf signalgrass = test: Test G preemergence/postemergence greenhouse plant response rating 0 to 100; format: in vivo, Brachiaria plantaginea; conditions: 0 to 100 scale
Source text: Seeds, rhizomes, or plant parts of alfalfa (Medicago ativa), annual bluegrass (Poa annua), bermudagrass (Cynodon dactylon), broadleaf signalgrass (Brachiaria plantaginea), common purslane (Portulaca oleracea), common ragweed (Ambrosia elatior), […] (Paspalum dilatatum), goosegrass (Eleusine indica), guineagrass (Panicum maximum), […] exaltata), johnsongrass (Sorghum halepense), large crabgrass (Digitaria sanguinalis), peanut (Arachis hypoagaea), pitted morningglory (Ipomoea lacunosa), purple nutsedge (Cyperus rotundus), sandbur (Cenchrus echinatus), smooth crabgrass (Digitaria ischaemum) and yellow nutsedge (Cyperus esculentus) were planted into greenhouse pots containing greenhouse planting medium. Each pot contained only one plant species. The test compound was dissolved in a non-phytotoxic solvent and applied preemergence and/or postemergence to the plants. Preemergence applications were made within one day of planting the seeds or plant parts. Postemergence applications were applied when the plants were in the two to four leaf stage (three to twenty cm). Test chemicals were dissolved in a non-phytotoxic solvent and applied preemergence and postemergence to the plants. Untreated control plants and treated plants were placed in the greenhouse and visually evaluated for injury at 13 to 21 days after herbicide application. […] A dash (-) response indicates no test result.

giant foxtail = test: Test B preemergence/postemergence greenhouse plant response rating 0 to 10; format: in vivo, Setaria faberii; conditions: 0 to 10 scale
In short: as §1

morningglory [2] = test: as above; format: in vivo, Ipomoea hederacea; conditions: 0 to 10 scale
In short: as §1

chickweed = test: as above; format: in vivo, Stellaria media; conditions: for Plant response rating, Chickweed: 0 to 10 scale
In short: as §1

C#CCOc1cc(-c2nn3c(c2Br)CCCC3)c(F)cc1Cl [Compound 26]
100: Plant response rating, Soybean (soybean; PREEMERGENCE, 250 g/ha) | Plant response rating, Morningglory (morningglory [1]; POSTEMERGENCE, 250 g/ha) | Plant response rating, Morningglory (morningglory [1]; PREEMERGENCE, 250 g/ha) | Plant response rating Lambsquarters (lambsquarters; POSTEMERGENCE, 62 g/ha) | Plant response rating Lambsquarters (lambsquarters; POSTEMERGENCE, 250 g/ha) | Plant response rating Lambsquarters (lambsquarters; PREEMERGENCE, 62 g/ha) | Plant response rating Lambsquarters (lambsquarters; PREEMERGENCE, 250 g/ha) | Plant response rating (0 to 100), Lambsquarters (lambsquarters; Rate 16 g/ha, PREEMERGENCE)
50: Plant response rating (0 to 100), Soybean (soybean; Rate 16 g/ha, POSTEMERGENCE) | Plant response rating Barley Igri (barley; POSTEMERGENCE, 250 g/ha) | Plant response rating (0 to 100), Morningglory (morningglory [1]; POSTEMERGENCE, Rate 4 g/ha)
2: Plant response rating (0 to 10 scale), Crabgrass (crabgrass; POSTEMERGENCE, Rate 50 g/ha) | Plant response rating, Barnyardgrass (barnyardgrass; PREEMERGENCE, Rate 50 g/ha) | Plant response rating, Morningglory (morningglory [2]; PREEMERGENCE, Rate 50 g/ha)
5: Plant response rating, Crabgrass (crabgrass; PREEMERGENCE, Rate 50 g/ha) | Plant response rating (0 to 10 scale), Cheatgrass (cheatgrass; POSTEMERGENCE, Rate 50 g/ha) | Plant response rating (0 to 10 scale), Corn (corn; POSTEMERGENCE, Rate 50 g/ha) | Plant response rating, Corn (corn; POSTEMERGENCE, Rate 200 g/ha) | Plant response rating (0 to 10 scale), Barnyardgrass (barnyardgrass; POSTEMERGENCE, Rate 50 g/ha)
4: Plant response rating, Corn (corn; PREEMERGENCE, Rate 50 g/ha) | Plant response rating, Giant foxtail (giant foxtail; POSTEMERGENCE, Rate 50 g/ha)
80: Plant response rating (0 to 100), Lambsquarters (lambsquarters; POSTEMERGENCE, Rate 4 g/ha) | Plant response rating (0 to 100), Lambsquarters (lambsquarters; PREEMERGENCE, Rate 4 g/ha) | Plant response rating (0 to 100), Lambsquarters (lambsquarters; Rate 16 g/ha, POSTEMERGENCE)
6: Plant response rating, Crabgrass (crabgrass; POSTEMERGENCE, Rate 200 g/ha) | Plant response rating, Cheatgrass (cheatgrass; PREEMERGENCE, Rate 50 g/ha) | Plant response rating, Corn (corn; Rate 200 g/ha, PREEMERGENCE) | Plant response rating, Giant foxtail (giant foxtail; POSTEMERGENCE, Rate 200 g/ha) | Plant response rating, Giant foxtail (giant foxtail; PREEMERGENCE, Rate 50 g/ha)
7: Plant response rating, Cheatgrass (cheatgrass; POSTEMERGENCE, Rate 200 g/ha) | Plant response rating, Cheatgrass (cheatgrass; Rate 200 g/ha, PREEMERGENCE) | Plant response rating, Barnyardgrass (barnyardgrass; POSTEMERGENCE, Rate 200 g/ha) | Plant response rating, Barnyardgrass (barnyardgrass; Rate 200 g/ha, PREEMERGENCE)
0: Plant response rating (0 to 100), Soybean (soybean; PREEMERGENCE, Rate 4 g/ha) | Plant response rating (0 to 100), Soybean (soybean; Rate 16 g/ha, PREEMERGENCE) | Plant response rating Barley Igri (barley; PREEMERGENCE, 62 g/ha) | Plant response rating (0 to 100), Barley Igri (barley; PREEMERGENCE, Rate 4 g/ha) | Plant response rating (0 to 100), Barley Igri (barley; Rate 16 g/ha, PREEMERGENCE) | Plant response rating (0 to 100), Morningglory (morningglory [1]; PREEMERGENCE, Rate 4 g/ha) | Plant response rating (0 to 100), Morningglory (morningglory [1]; Rate 16 g/ha, PREEMERGENCE) | Plant response rating, Brdlf Sgnlgrass (broadleaf signalgrass; POSTEMERGENCE, Rate 125 g/ha) | Plant response rating, Brdlf Sgnlgrass (broadleaf signalgrass; POSTEMERGENCE, Rate 250 g/ha) | Plant response rating, Brdlf Sgnlgrass (broadleaf signalgrass; PREEMERGENCE, Rate 125 g/ha) | Plant response rating, Brdlf Sgnlgrass (broadleaf signalgrass; PREEMERGENCE, Rate 250 g/ha)
40: Plant response rating Barley Igri (barley; POSTEMERGENCE, 62 g/ha)
20: Plant response rating (0 to 100), Soybean (soybean; POSTEMERGENCE, Rate 4 g/ha) | Plant response rating Barley Igri (barley; PREEMERGENCE, 250 g/ha) | Plant response rating (0 to 100), Barley Igri (barley; Rate 4 g/ha, POSTEMERGENCE) | Plant response rating (0 to 100), Barley Igri (barley; Rate 16 g/ha, POSTEMERGENCE) | Plant response rating, Morningglory (morningglory [1]; PREEMERGENCE, 62 g/ha)
70: Plant response rating, Morningglory (morningglory [1]; POSTEMERGENCE, 62 g/ha) | Plant response rating (0 to 100), Morningglory (morningglory [1]; Rate 16 g/ha, POSTEMERGENCE)
3: Plant response rating, Rape (rape; PREEMERGENCE, Rate 50 g/ha)
9: Plant response rating, Crabgrass (crabgrass; Rate 200 g/ha, PREEMERGENCE) | Plant response rating, Rape (rape; POSTEMERGENCE, Rate 50 g/ha) | Plant response rating, Morningglory (morningglory [2]; POSTEMERGENCE, Rate 50 g/ha) | Plant response rating, Morningglory (morningglory [2]; POSTEMERGENCE, Rate 200 g/ha) | Plant response rating, Morningglory (morningglory [2]; Rate 200 g/ha, PREEMERGENCE)
60: Plant response rating, Soybean (soybean; POSTEMERGENCE, 62 g/ha) | Plant response rating, Soybean (soybean; POSTEMERGENCE, 250 g/ha)
10: Plant response rating, Velvetleaf (velvetleaf; POSTEMERGENCE, Rate 50 g/ha) | Plant response rating, Velvetleaf (velvetleaf; POSTEMERGENCE, Rate 200 g/ha) | Plant response rating, Velvetleaf (velvetleaf; PREEMERGENCE, Rate 50 g/ha) | Plant response rating, Velvetleaf (velvetleaf; Rate 200 g/ha, PREEMERGENCE) | Plant response rating, Rape (rape; POSTEMERGENCE, Rate 200 g/ha) | Plant response rating, Rape (rape; Rate 200 g/ha, PREEMERGENCE) | Plant response rating, Giant foxtail (giant foxtail; Rate 200 g/ha, PREEMERGENCE) | Plant response rating (0 to 10 scale), Chickweed (chickweed; POSTEMERGENCE, Rate 50 g/ha) | Plant response rating, Chickweed (chickweed; POSTEMERGENCE, Rate 200 g/ha) | Plant response rating, Chickweed (chickweed; PREEMERGENCE, Rate 50 g/ha) | Plant response rating, Chickweed (chickweed; Rate 200 g/ha, PREEMERGENCE)
